Experimental data reported in patent US20260327264A1, “PEPTIDE INHIBITORS OF INTERLEUKIN-23 RECEPTOR” (Zealand Pharma A/S, priority 2023, published 2026).
Like-named read-outs stand apart in the source and are kept apart here. *1 amine or outer side, *2 acyl side, *3 side chain or, on linkers, in order; H or OH if unused. Where a SMILES comes first, the peptide text is derived from it. Bridges are numbered along the chain shown (N, C = ends). [ ]: non-standard residue; d: D form. The star is where a group is joined. 2Nal = N[C@@H](Cc1ccc2ccccc2c1)C(=O)O; AEF = NCCOc1ccc(C[C@H](N)C(=O)O)cc1; X1 = O=C(Cc1ccc(CN[*:1])cc1)[*:2]; 3Pal = N[C@@H](Cc1cccnc1)C(=O)O; αMeL = CC(C)C[C@](C)(N)C(=O)O; Orn = NCCC[C@H](N)C(=O)O; Pyrrolidide = C1CCN(*)C1; Dab = NCC[C@H](N)C(=O)O

How the values were obtained:
[1] = Peptide stability in simulated intestinal fluid (SIF); assay type: in vitro ADME; conditions: pig, simulated intestinal fluid, SIF, pH 6.8, pancreatin, 37° C., 10 μM; for remaining at 4 h, 10 µM: read-out: SIF (% remaining 4 h)
Outline: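 Peptide at 10 μM final in USP-type SIF (10 g/L porcine pancreatin, phosphate buffer pH 6.8), shaken at 37 °C. Samples at 0, 1 and 4 h quenched in acetonitrile/0.1% formic acid and analysed by LC-HRMS. Percent remaining calculated from absolute peak areas relative to time zero.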

[2] = system: IL-23 mediated STAT3 signalling (DB cells); assay: Functional inhibition of IL-23 mediated STAT3 signalling (phospho-STAT3 Tyr705) in DB cells; assay type: cell-based, human; conditions: for hIL-23 (pSTAT3) antagonist % inhibition: Table 3-2, maximal inhibitory response, EC80 of hIL-23
Outline: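 DB cells preincubated 15 min with inhibitor at 37° C, 5% CO2, then stimulated 90 min with hIL-23 at EC80. Lysate phospho-STAT3 measured by MSD electrochemiluminescence. Signal normalized to IL-23-alone and buffer wells; IC50 and maximal inhibition from concentration–response curves.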

[3] = Peptide stability in simulated gastric fluid (SGF); assay type: in vitro ADME; conditions: pig, pH 1.2, pepsin, 37° C.
Outline: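 Peptide (10 μM final) incubated at 37 °C in USP SGF, pH 1.2 with porcine pepsin 3.2 g/L; aliquots at 0, 1 and 4 h quenched in acidified acetonitrile.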

human IL-23R = target: T1, human IL-23R (Homo sapiens, UniProt Q5VWK5); assay: Binding assay: displacement of fluorophore (TAMRA)-labelled reference compound from human IL-23R (BRET, Nluc-IL23R fusion protein membranes); conditions: for Emax: read-out: % displacement (hIL-23R binding)
T1 construct: Nanoluc luciferase (Nluc); secretion signal encoded by the plasmid (not specified); expressed in transfected cells; crude membranes used in the assay
T1 sequence (Q5VWK5 22-629): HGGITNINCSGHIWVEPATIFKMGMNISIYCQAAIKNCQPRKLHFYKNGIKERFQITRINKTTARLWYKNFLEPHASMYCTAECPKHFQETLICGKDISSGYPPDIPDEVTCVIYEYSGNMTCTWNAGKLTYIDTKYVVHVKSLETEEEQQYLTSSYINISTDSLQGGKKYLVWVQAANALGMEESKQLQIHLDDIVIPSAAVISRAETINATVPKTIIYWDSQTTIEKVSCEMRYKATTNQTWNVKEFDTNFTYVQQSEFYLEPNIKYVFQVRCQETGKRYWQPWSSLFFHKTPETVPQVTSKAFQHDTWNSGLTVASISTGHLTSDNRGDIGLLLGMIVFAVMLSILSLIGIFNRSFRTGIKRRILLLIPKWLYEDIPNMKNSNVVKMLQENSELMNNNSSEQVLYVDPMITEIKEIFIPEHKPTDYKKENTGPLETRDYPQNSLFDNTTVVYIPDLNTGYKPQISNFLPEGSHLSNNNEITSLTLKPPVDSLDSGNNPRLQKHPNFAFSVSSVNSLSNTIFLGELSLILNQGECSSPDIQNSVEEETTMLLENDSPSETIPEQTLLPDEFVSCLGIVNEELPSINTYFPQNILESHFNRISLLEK

[4] = Table 3-2, EC80 of hIL-23, read-out: hIL-23 (pSTAT3) antagonist IC50

| Compound | remaining at 1 h, 10 µM [1] [%] | IC50 ([2]; EC80 of hIL-23, read-out: IC50 (pSTAT3)) [pM] | IC50 [2, 4] [pM] | hIL-23 (pSTAT3) antagonist % inhibition [2] [%] | remaining at 1 h, 10 µM [3] [%] | remaining at 4 h, 10 µM [3] [%] | IC50 (human IL-23R) [pM] | Emax (human IL-23R) [%] | remaining at 4 h, 10 µM [1] [%] |
| --- | --- | --- | --- | --- | --- | --- | --- | --- | --- |
| CC(C)C[C@]1(C)NC(=O)[C@H](Cc2ccc3ccccc3c2)NC(=O)[C@H](Cc2ccc(OCCN)cc2)NC(=O)[C@@H]2CCNC(=O)CC[C@H](NC(=O)[C@H](CO)NC(=O)Cc3ccc(cc3)CNC(=O)CC[C@@H](C(=O)N[C@@H](CCN)C(=O)NCCCCc3cccnc3)NC1=O)C(=O)N[C@@H](Cc1c[nH]c3ccccc13)C(=O)N[C@@H](CCC(N)=O)C(=O)N2 [Compound 6, [4-Aminomethyl-phenylacetyl](1c)*SE(2c)WQ[Dab](2c)[Y(2-aminoethoxy)][2-Nal][2-Me-Leu]E(1c)[Dab]-[NH-(4-(pyridin-3-yl)butanyl)]] | 97 | 3200 | 3200 | 99 | 110 | 108 | 37 | 103 | – |
| CNC(=O)[C@H](Cc1cccnc1)NC(=O)[C@H](CCN)NC(=O)[C@@H]1CCC(=O)NCc2ccc(cc2)CC(=O)N[C@@H](CO)C(=O)N[C@H]2CCC(=O)NCC[C@H](NC(=O)[C@H](CCC(=O)N3CCCC3)NC(=O)[C@H](Cc3c[nH]c4ccccc34)NC2=O)C(=O)N[C@@H](Cc2ccc(OCCN)cc2)C(=O)N[C@@H](Cc2ccc3ccccc3c2)C(=O)N[C@@](C)(CC(C)C)C(=O)N1 [Compound 27, [4-Aminomethyl-phenylacetyl](1c)*SE(2c)W[Q(pyrrolidin)][Dab](2c)[Y(2-aminoethoxy)][2-Nal][2-Me-Leu]E(1c)[Dab][3-(3-Pyridyl)-Ala]-[NHMe]] ([X1]SEWE(Pyrrolidide)[Dab][AEF][2Nal][αMeL]E[Dab][3Pal]-NHMe; lactam 3-6, N-10) | 90 | – | 230 | 100 | 101 | 96 | 17 | 97 | 85 |
| CNC(=O)[C@H](Cc1cccnc1)NC(=O)[C@H](CCN)NC(=O)[C@@H]1CCC(=O)NCc2ccc(cc2)CC(=O)N[C@@H](CO)C(=O)N[C@H]2CCC(=O)NCC[C@H](NC(=O)[C@H](CCCCNC(C)=O)NC(=O)[C@H](Cc3c[nH]c4ccccc34)NC2=O)C(=O)N[C@@H](Cc2ccc(OCCN)cc2)C(=O)N[C@@H](Cc2ccc3ccccc3c2)C(=O)N[C@@](C)(CC(C)C)C(=O)N1 [Compound 24, [4-Aminomethyl-phenylacetyl](1c)*SE(2c)W[K(Ac)][Dab](2c)[Y(2-aminoethoxy)][2-Nal][2-Me-Leu]E(1c)[Dab][3-(3-Pyridyl)-Ala]-[NHMe]] ([X1]SEWK(Ac)[Dab][AEF][2Nal][αMeL]E[Dab][3Pal]-NHMe; lactam 3-6, N-10) | 91 | – | 58 | 98 | 93 | 90 | – | 97 | 89 |
| CNC(=O)[C@H](Cc1cccnc1)NC(=O)[C@H](CCN)NC(=O)[C@@H]1CCC(=O)NCc2ccc(cc2)CC(=O)N[C@@H](CO)C(=O)N[C@H]2CCC(=O)NCC[C@H](NC(=O)[C@H](CCCN)NC(=O)[C@H](Cc3c[nH]c4ccccc34)NC2=O)C(=O)N[C@@H](Cc2ccc(OCCN)cc2)C(=O)N[C@@H](Cc2ccc3ccccc3c2)C(=O)N[C@@](C)(CC(C)C)C(=O)N1 [Compound 28, [4-Aminomethyl-phenylacetyl](1c)*SE(2c)W[Orn][Dab](2c)[Y(2-aminoethoxy)][2-Nal][2-Me-Leu]E(1c)[Dab][3-(3-Pyridyl)-Ala]-[NHMe]] ([X1]SEW[Orn][Dab][AEF][2Nal][αMeL]E[Dab][3Pal]-NHMe; lactam 3-6, N-10) | 106 | – | 52 | 101 | 100 | – | 11 | 97 | – |
| CNC(=O)[C@H](Cc1cccnc1)NC(=O)[C@H](CCN)NC(=O)[C@@H]1CCC(=O)NCc2ccc(cc2)CC(=O)N[C@@H](CO)C(=O)N[C@H]2CCC(=O)NCC[C@H](NC(=O)[C@H](CCNC(C)=O)NC(=O)[C@H](Cc3c[nH]c4ccccc34)NC2=O)C(=O)N[C@@H](Cc2ccc(OCCN)cc2)C(=O)N[C@@H](Cc2ccc3ccccc3c2)C(=O)N[C@@](C)(CC(C)C)C(=O)N1 [Compound 25, [4-Aminomethyl-phenylacetyl](1c)*SE(2c)W[Dab(Ac)][Dab](2c)[Y(2-aminoethoxy)][2-Nal][2-Me-Leu]E(1c)[Dab][3-(3-Pyridyl)-Ala]-[NHMe]] ([X1]SEW[Dab](Ac)[Dab][AEF][2Nal][αMeL]E[Dab][3Pal]-NHMe; lactam 3-6, N-10) | 88 | – | 76 | 100 | 93 | – | 11 | – | – |
| CNC(=O)[C@H](Cc1cccnc1)NC(=O)[C@H](CCO)NC(=O)[C@@H]1CCC(=O)NCc2ccc(cc2)CC(=O)N[C@@H](CO)C(=O)N[C@H]2CCC(=O)NCC[C@H](NC(=O)[C@H](CCC(N)=O)NC(=O)[C@H](Cc3c[nH]c4ccccc34)NC2=O)C(=O)N[C@@H](Cc2ccc(OCCN)cc2)C(=O)N[C@@H](Cc2ccc3ccccc3c2)C(=O)N[C@@](C)(CC(C)C)C(=O)N1 [Compound 36, [4-Aminomethyl-phenylacetyl](1c)*SE(2c)WQ[Dab](2c)[Y(2-aminoethoxy)][2-Nal][2-Me-Leu]E(1c)[hSer][3-(3-Pyridyl)-Ala]-[NHMe]] | 99 | – | 34 | 103 | – | 103 | – | 94 | – |
| CC(C)C[C@]1(C)NC(=O)[C@H](Cc2ccc3ccccc3c2)NC(=O)[C@H](Cc2ccc(OCCN)cc2)NC(=O)[C@@H]2CCNC(=O)CC[C@H](NC(=O)[C@H](CO)NC(=O)Cc3ccc(cc3)CNC(=O)CC[C@@H](C(=O)N[C@@H](CCN)C(=O)N[C@@H](Cc3cn(C)cn3)C(N)=O)NC1=O)C(=O)N[C@@H](Cc1c[nH]c3ccccc13)C(=O)N[C@@H](CCC(N)=O)C(=O)N2 [Compound 14, [4-Aminomethyl-phenylacetyl](1c)*SE(2c)WQ[Dab](2c)[Y(2-aminoethoxy)][2-Nal][2-Me-Leu]E(1c)[Dab][H(Me)]-[NH2]] | 98 | – | 7200 | 99 | 93 | – | 110 | 102 | – |
| CNC(=O)[C@H](Cc1cccnc1)NC(=O)[C@H](CCN)NC(=O)[C@@H]1CCC(=O)NCc2ccc(cc2)CC(=O)N[C@@H](CO)C(=O)N[C@H]2CCC(=O)NCC[C@H](NC(=O)[C@H](CCC(=O)N(C)C)NC(=O)[C@H](Cc3c[nH]c4ccccc34)NC2=O)C(=O)N[C@@H](Cc2ccc(OCCN)cc2)C(=O)N[C@@H](Cc2ccc3ccccc3c2)C(=O)N[C@@](C)(CC(C)C)C(=O)N1 [Compound 30, [4-Aminomethyl-phenylacetyl](1c)*SE(2c)W[Q(2Me)][Dab](2c)[Y(2-aminoethoxy)][2-Nal][2-Me-Leu]E(1c)[Dab][3-(3-Pyridyl)-Ala]-[NHMe]] ([X1]SEWE(NMe2)[Dab][AEF][2Nal][αMeL]E[Dab][3Pal]-NHMe; lactam 3-6, N-10) | 94 | – | 77 | 103 | 92 | 89 | – | 104 | – |
| CNC(=O)[C@H](Cc1cccnc1)NC(=O)[C@H](CO)NC(=O)[C@@H]1CCC(=O)NCc2ccc(cc2)CC(=O)N[C@@H](CO)C(=O)N[C@H]2CCC(=O)NCC[C@H](NC(=O)[C@H](CCC(N)=O)NC(=O)[C@H](Cc3c[nH]c4ccccc34)NC2=O)C(=O)N[C@@H](Cc2ccc(OCCN)cc2)C(=O)N[C@@H](Cc2ccc3ccccc3c2)C(=O)N[C@@](C)(CC(C)C)C(=O)N1 [Compound 31, [4-Aminomethyl-phenylacetyl](1c)*SE(2c)WQ[Dab](2c)[Y(2-aminoethoxy)][2-Nal][2-Me-Leu]E(1c)S[3-(3-Pyridyl)-Ala]-[NHMe]] ([X1]SEWQ[Dab][AEF][2Nal][αMeL]ES[3Pal]-NHMe; lactam 3-6, N-10) | 77 | – | 60 | 101 | 101 | 99 | – | 97 | – |
